Source: patent publication US20250082625A1, “NOVEL THERAPY” (priority 2016, published 2025)
“Also recorded” adds a separate entry of the source.

System: Nlrp3^−/− mice infected with CY-17
Test: Disease severity / bladder pathology in CY-17 infected Nlrp3^−/− mice (murine acute cystitis model)
Format: in vivo
Protocol: To inhibit the NK1R dependent response to infection, we used the NK1R antagonist SR 140333. FIG. 6a Experimental scheme of NK1R antagonist (SR140333) treatment. Susceptible Nlrp3^−/− mice were infected with CY-17 for 24 hours, and the neuropeptide response and disease severity was compared between untreated infected mice, treated and infected mice and sham treated uninfected mice. The mice were either pre-treated with SR140333 i.p. for 30 minutes prior to infection or treated i.p. 1 hour after infection. Sham treated mice received SR140333 i.p. and PBS intravesically. n=10 mice in each treatment group, n=6 in the sham treated, uninfected group. N=2 in the uninfected control group. Means+SEMs of 2 experiments, total number of mice=39. FIG. 6b Protection against gross bladder pathology in SR140333 treated mice compared untreated, infected mice, FIG. 6c Inhibition of NK1R staining in treated mice compared to infected mice not receiving SR140333. Sections were obtained from 4 mice per condition. FIG. 6d Inhibition of Nk1r expression, detected by qRT-PCR analysis of treated mice compared to untreated, infected mice. Sections were obtained from 5 mice per treatment group. FIG. 6e Attenuated SP staining in SR140333 treated infected mice compared to untreated mice (n=4 mice per condition). […] FIG. 6h Galr2 gene expression is not altered after treatment with SR140333. n=5 mice per treatment group (*=p<0.05, **=p<0.01, Mann-Whitney test). FIG. 6i Protection from bladder tissue pathology shown in H&E stained and neutrophil and bacterial immunostained sections from treated versus control mice. […] (n=10 mice per treatment group, n=4 mice per sham group, means+SEMs, *P<0.05, **P<0.01, ***P<0.001, one way Anova).
Susceptible Nlrp3^−/− mice were treated with SR140333 intra-peritoneally (1 mg/kg), one hour before infection (pretreatment) or 30 minutes after infection (post-treatment) with CY-17 (FIG. 6a). The severity of acute cystitis after 24 hours or seven days was examined and neuropeptide expression and disease severity quantified by immunohistochemistry and qRT-PCR of whole bladder RNA extracts, using primers specific for NK1R, Ppt-1 or Galr2 as described above.
Bladder tissue was more intact and the inflammatory cell infiltrate was reduced in tissues.

CC(C)Oc1cccc(CC(=O)N2CCC[C@](CC[N+]34CCC(c5ccccc5)(CC3)CC4)(c3ccc(Cl)c(Cl)c3)C2)c1.[Cl-] [SR140333, 1-[2-[(3S)-3-(3,4-Dichlorophenyl)-1-[2-[3-(1-methylethoxy)phenyl]acetyl]-3-piperidinyl]ethyl]-4-phenyl-1-azoniabicyclo[2.2.2]octane chloride]
gross bladder pathology (edema, hyperemia and bladder enlargement) (24 hours post infection, vs infected mice without therapy): reduction; also recorded: Protection
Histology score (after treatment with SR140333): reduced pathology
inflammatory cell infiltrate in tissues (treated Nlrp3^−/− mice vs infected mice without therapy): reduced
bladder tissue pathology / tissue integrity (H&E, neutrophil and bacterial immunostained sections) (treated versus control mice): more intact; also recorded: Protection
